Experiment [1] deals with isolated guinea pig hearts. The experiment in a line: Isolated hearts: lipid peroxidation, endothelial apoptosis and coronary flow after cold ischemia and warm reperfusion. As to conditions: 1 nM SS-31 or 100 nM SS-20 in St. Thomas solution. As to the method: Guinea pig hearts were perfused with a cardioplegic solution (St. Thomas solution) alone or St. Thomas solution containing either 1 nM SS-31 or 100 nM SS-20 for 3 min. and then subjected to 18 hours of cold ischemia (4° C.). The hearts were then reperfused with Krebs Henseleit buffer at 34° C. for 90 min. Immunohistochemical analysis of 4-hydroxynonenol (HNE)-modified proteins in paraffin sections from tissue slices were performed by incubation with an anti-HNE antibody (Santa Cruz) and a fluorescent secondary antibody. […] HNE staining was reduced in hearts stored in SS-31 (FIG. 13C) or SS-20 (FIG. 13D).
Guinea pig heats were perfused with a cardioplegic solution (St. Thomas solution) alone or St. Thomas solution containing either 1 nM SS-31 or 100 nM SS-20 for 3 min. and then subjected to 18 hours of cold ischemia (4° C.). The hearts were then reperfused with Krebs Henseleit buffer at 34° C. for 90 min. After deparaffinization, sections were incubated with deoxynucleotidyl transferase (Tdt) with digoxigenin-dNTP for 1 hour. The reaction was stopped with terminating buffer. A fluorescent anti-digoxigenin antibody was then applied.
A significant improvement of coronary blood flow after prolonged cold ischemic storage and warm reperfusion occurred (FIG. 15). Guinea pigs hearts were perfused with a cardioplegic solution (St. Thomas solution) alone or St. Thomas solution containing either 1 nM SS-31 (FIG. 15A) or 100 nM SS-20) (FIG. 15B) for 3 min. and then subjected to 18 hours of cold ischemia (4° C.). The hearts were then reperfused with Krebs Henseleit buffer at 34° C. for 90 min.

The next experiment deals with CD36. The experiment in a line: CD36 immunostaining in isolated hearts after cold ischemic storage and warm reperfusion. Set-up: species or system guinea pig. As to conditions: 1 nM SS-31 or 100 nM SS-20 in St. Thomas solution, 18 h at 4° C., 90 min reperfusion at 34° C. The protocol:
Isolated guinea pig hearts were perfused with St. Thomas solution alone, or St. Thomas solution containing 1 nM SS-31 or 100 nM SS-20, for 3 min. and then stored in the same solution at 4° C. for 18 hours. After ischemic storage, hearts were reperfused with 34° C. Kreb-Henseleit solution for 90 min. Hearts freshly isolated from guinea pigs were used as controls.
The hearts were fixed in paraffin and sliced for immunostaining with an anti-CD36 rabbit polyclonal antibody. Two sections are shown for each treatment group. […] The “background” (FIGS. 12A and 12B) represents two sections from a normal non-ischemic heart that was not treated with the primary antibody. “Normal heart” (FIGS. 12C and 12D) represents two sections obtained from a non-ischemic heart.

[2] abbreviates: 18 h at 4° C., 90 min reperfusion.

Entries after “also recorded” stand apart in the source; their conditions may differ. Square brackets hold non-standard residues; d marks the D form. Ends that are not written are not given here.

On to F[dR]FK-NH2 [SS-20], for which, in experiment [1] (setting [2]), the “HNE staining (lipid peroxidation) in stored hearts” value is given as “reduced” and the “endothelial apoptosis in stored hearts” value is listed as “Apoptotic cells were not observed”. Also, the “coronary flow restored, of pre-ischemic flow” value in experiment [1] (18 h at 4° C., 90 min reperfusion, pre-ischemic control = 100%) was “approximately 80%”. The “coronary flow (in words)” value in experiment [1] (18 h cold ischemia, warm reperfusion) is given as “preserves coronary flow”. Further, in the experiment on CD36, the “CD36 staining in stored hearts” value was “significantly reduced; also recorded: did not show the upregulation of CD36 expression”.

(Values after US11447523B2, “Methods for reducing CD36 expression” (Cornell Research Foundation, Inc., priority 2005, dated 2022).)
